The record followed here is ChEMBL document CHEMBL1138643, “Haloperidol: towards further understanding of the structural contributions of its pharmacophoric elements at D2-like receptors” (Bioorg Med Chem Lett, 2004).

Structures are written as SMILES. Where only a bound is given, the exact number is not on record here.

Test [1] can be described thus: Binding affinity for dopamine D3 receptor.
Test [2] is described as follows: Binding affinity for dopamine D2 receptor to that of dopamine D4 receptor.
In test [3] the target is T1, D(4) dopamine receptor (Homo sapiens, UniProt P21917).
T1 sequence (P21917 whole entry): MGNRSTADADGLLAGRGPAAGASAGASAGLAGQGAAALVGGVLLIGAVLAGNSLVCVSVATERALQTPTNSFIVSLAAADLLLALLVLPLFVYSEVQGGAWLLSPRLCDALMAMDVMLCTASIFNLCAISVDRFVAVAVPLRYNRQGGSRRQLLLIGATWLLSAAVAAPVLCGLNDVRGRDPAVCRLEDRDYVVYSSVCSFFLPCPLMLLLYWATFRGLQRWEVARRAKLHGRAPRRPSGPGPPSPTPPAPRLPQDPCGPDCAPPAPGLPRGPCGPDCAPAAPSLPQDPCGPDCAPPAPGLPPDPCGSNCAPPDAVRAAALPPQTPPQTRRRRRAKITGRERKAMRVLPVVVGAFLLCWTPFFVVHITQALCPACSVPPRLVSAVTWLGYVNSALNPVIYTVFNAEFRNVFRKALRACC
The test can be described thus: Binding affinity for dopamine D4 receptor.

In test [4] the target is D(2) dopamine receptor (Homo sapiens, UniProt P14416).
Chain of D(2) dopamine receptor (P14416 whole entry): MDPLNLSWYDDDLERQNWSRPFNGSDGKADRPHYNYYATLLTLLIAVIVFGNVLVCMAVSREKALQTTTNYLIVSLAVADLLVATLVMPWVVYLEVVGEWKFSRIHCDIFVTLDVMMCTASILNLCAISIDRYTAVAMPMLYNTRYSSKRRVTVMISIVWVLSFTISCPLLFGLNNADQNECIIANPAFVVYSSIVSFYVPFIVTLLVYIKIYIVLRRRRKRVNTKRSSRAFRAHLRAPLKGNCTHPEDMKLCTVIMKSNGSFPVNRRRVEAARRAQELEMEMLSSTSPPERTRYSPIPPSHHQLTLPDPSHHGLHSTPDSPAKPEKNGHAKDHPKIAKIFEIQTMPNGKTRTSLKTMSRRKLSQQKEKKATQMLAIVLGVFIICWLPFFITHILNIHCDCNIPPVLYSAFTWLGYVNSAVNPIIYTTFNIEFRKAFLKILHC

By Ki is commonly meant the equilibrium dissociation constant of an inhibitor or competing ligand from its target. In the case of `O=C(CCCN1C2CCC1CC(c1ccccc1)C2)c1ccc(F)cc1` (stereo not drawn), the Ki was found to be 51.4 nM in test [1] and 177 nM in test [3]. For the same compound, the Ratio in test [2] came out at 0.7.

Regarding `O=C(CCCN1C2CCC1CC(c1ccc(Cl)cc1)C2)c1ccc(F)cc1` (stereo not drawn), the figures for the inhibition constant Ki in test [1], in test [4] and in test [3] were 222 nM, 190 nM and 345 nM, respectively. In test [2], the Ratio came out at 0.6.

The compound `O=C(CCCN1CCN(c2ccc(Cl)cc2)CC1)c1ccc(F)cc1` yielded a Ki in test [3] of 17.5 nM.

With `O=C(CCCN1C2CCC1CC(O)(c1ccc(Cl)cc1)C2)c1ccc(F)cc1` (stereo not drawn), in test [2], the Ratio amounted to 0.03.

In test [1], `O=C(CCCN1CCC(c2ccc(Cl)cc2)CC1)c1ccc(F)cc1` returned a Ki of 46 nM.

`O=C(CN1C2CCC1CC(O)(c1ccc(Cl)cc1)C2)c1ccc(F)cc1` (stereo not drawn): the Ki in test [1] is more than 10000 nM.

`O=C(CCCN1C2CCC1CC(O)(c1ccccc1)C2)c1ccc(F)cc1` (stereo not drawn): the inhibitory constant (Ki) in test [1] came to 3.2 nM; in test [3] it was 19.1 nM.
